Where two headings read alike, the source gives them in different places. Blank lines part the entries; values can stand above or below the molecule they belong to.
Biological target: CA IX (Homo sapiens, UniProt Q16790)
Assay: biochemical
[1] = experimental value from the library Ki (IDs A…, B…), values equal log10 of Ki in nM
[2] = experimental value used for the QSPR model, library compounds (IDs A…, B…), equals log10 of Ki in nM
[3] = library compounds with IDs A… and B…, from observed Ki (nM)

Compound: COc1ccc(C2=Nn3c(nnc3-c3ccc(S(N)(=O)=O)cc3)SC2)cc1 [A0402]
log10 of Ki in nM [1]: 0.813

Compound: CCOC(=O)c1cc(O)ccc1O [A2120]
log10 of Ki in nM: 2.934

Compound: NS(=O)(=O)c1ccc(OCCN2CCOCC2)cc1 [A0728]
log10 of Ki in nM [2]: 1.100

Compound: NS(=O)(=O)c1cc(-c2cnc(C3CC3)o2)cs1 [B0238]
log10 of Ki in nM [2]: 1.114

Compound: NS(=O)(=O)Nc1ccc(S(=O)(=O)Nc2nnc(S(N)(=O)=O)s2)cc1 [A1288]
log10 of Ki in nM [1]: 1.716

Compound: Cc1ccc(-n2c(=S)[nH]c3c(c(-c4ccc(Br)cc4)cn3-c3ccc(S(N)(=O)=O)cc3)c2=N)cc1 [A1740]
log10 of Ki in nM [2]: 2.210

Compound: Cc1ccc(-c2cc(CO)nn2-c2ccc(S(N)(=O)=O)cc2)cc1 [A0902]
log10 of Ki in nM [1]: 1.342

Compound: Cc1cc(C)oc(=O)c1 [B0786]
log10 of Ki in nM [2]: 3.393

Compound: Nc1cc(Nc2ccc(S(N)(=O)=O)cc2)nc(N)n1 [A0250]
log10 of Ki in nM [3]: 0.591

Compound: CCCN(CCC)S(=O)(=O)c1ccc(C(=O)N[C@@H](Cc2c[nH]c3ccccc23)C(N)=O)cc1 [A0923]
log10 of Ki in nM [1]: 1.362

Compound: CC(=O)NNc1ccccc1S(N)(=O)=O [A1755]
log10 of Ki in nM: 2.243

Compound: NC(=S)NNC(=O)c1ccncc1 [A2157]
log10 of Ki in nM [3]: 2.988

Compound: NS(=O)(=O)c1ccc(/N=C/c2ccccc2)c(F)c1 [A1026]
log10 of Ki in nM [2]: 1.447

Compound: N#Cc1c(-c2ccc(Br)cc2)cn(-c2ccc(S(N)(=O)=O)cc2)c1NC(=O)c1ccc(Br)cc1 [B0101]
log10 of Ki in nM [3]: 0.724

Compound: COc1ccc2c(c1)/C(=N\c1ccc(NC(=O)Nc3ccc(S(N)(=O)=O)cc3)cc1)C(=O)N2 [B0174]
log10 of Ki in nM [3]: 0.929

Compound: NS(=O)(=O)c1ccc(C(=O)NCc2cn([C@@H]3O[C@H](CO)[C@H](O)[C@H](O)[C@H]3O)nn2)cc1 [A1960]
log10 of Ki in nM: 2.556

Compound: NS(=O)(=O)c1ccc(CCNCc2cc(Cl)cc(Cl)c2O)cc1 [A0260]
log10 of Ki in nM [2]: 0.613

Compound: NS(=O)(=O)c1ccc(NC(=O)Cn2ccc(=O)c(S(N)(=O)=O)c2)cc1 [B0371]
log10 of Ki in nM: 1.491

Compound: Cc1cc(C)c(S(=O)(=O)Nc2cccc(C3C4=C(CC(C)(C)CC4=O)N(c4ccc(S(N)(=O)=O)cc4)C4=C3C(=O)CC(C)(C)C4)c2)c(C)c1 [A1535]
log10 of Ki in nM [3]: 1.954

Compound: NS(=O)(=O)c1ccc(NC(=O)c2ccc(/N=C3\C(=O)Nc4ccc(F)cc43)cc2)cc1 [A0310]
log10 of Ki in nM [3]: 0.699

Compound: N#Cc1c(-c2ccc(Br)cc2)cn(-c2ccc(S(N)(=O)=O)cc2)c1NC(=S)Nc1ccc(Br)cc1 [A1551]
log10 of Ki in nM [2]: 1.960

Compound: Cc1ccc2c(n1)SCc1cnc(Nc3ccc(S(N)(=O)=O)cc3)nc1-2 [A0518]
log10 of Ki in nM [1]: 0.908

Compound: NS(=O)(=O)c1ccc(CNC(=S)N[C@@H]2O[C@H](CO)[C@@H](O)[C@H](O)[C@H]2O)cc1 [A0577]
log10 of Ki in nM: 0.944

Compound: NS(=O)(=O)c1ccc(/N=c2\scc(-c3ccc(Br)cc3)n2C2CCCCC2)cc1 [A1905]
log10 of Ki in nM [3]: 2.442

Compound: Cc1cc(=O)oc2cc(-n3cc(CSc4ccccc4)nn3)ccc12 [A1053]
log10 of Ki in nM [3]: 1.471

Compound: CCCCCOS(N)(=O)=O [A1675]
log10 of Ki in nM: 2.100

Compound: COC(=O)c1cn(-c2ccc(S(N)(=O)=O)cc2)nc1-c1ccc(F)cc1 [A0626]
log10 of Ki in nM [1]: 0.973

Compound: NS(=O)(=O)c1ccc(NCc2cc(Br)ccc2O)cc1 [A0114]
log10 of Ki in nM [1]: 0.415

Compound: NS(=O)(=O)c1ccc2nc(-n3cc(/C=N/O)c(-c4ccc([N+](=O)[O-])cc4)n3)sc2c1 [A1655]
log10 of Ki in nM [3]: 2.076

Compound: NS(=O)(=O)c1ccc(NC2=NC(=O)/C(=N/Nc3ccc(Cl)cc3)S2)cc1 [B0138]
log10 of Ki in nM [2]: 0.863

Compound: COc1ccc(-c2cc(CO)nn2-c2ccc(S(N)(=O)=O)cc2)cc1 [A0859]
log10 of Ki in nM [1]: 1.301

Ki (read-out: pKi (exp.) (converted)): 10 µM
Compound: CCOC(=O)c1cc(S(N)(=O)=O)c(SSc2cc(Cl)c(C(=O)OCC)cc2S(N)(=O)=O)cc1Cl [A2456]

Compound: O=C1NS(=O)(=O)c2cc([N+](=O)[O-])ccc21 [A1570]
log10 of Ki in nM [3]: 1.981

Compound: Cc1c(C(=O)N2CCN(C)CC2)cc(-c2ccc3ccccc3c2)n1-c1ccc(S(N)(=O)=O)cc1 [A1687]
log10 of Ki in nM [3]: 2.124

Compound: COc1ccc(-c2cn(-c3ccc(S(N)(=O)=O)cc3)c(=S)[nH]2)cc1 [A1063]
log10 of Ki in nM [1]: 1.477

Compound: NS(=O)(=O)c1ccc(-c2cccc(C=O)c2)cc1 [A1584]
log10 of Ki in nM: 1.993

Compound: Fc1ccc(-c2nn(-c3ccccc3)cc2-c2nc3ccccc3[nH]2)cc1 [A1367]
log10 of Ki in nM [3]: 1.813

Compound: O=NCc1c(O)ccc(-c2ccc(O)cc2)c1Cl [B0828]
log10 of Ki in nM [2]: 3.780

Compound: N#C/C(=C\c1ccc2c(c1)OCO2)C(=O)Nc1ccc(S(N)(=O)=O)cc1 [A0636]
log10 of Ki in nM [1]: 0.978

From publication PMC6151961 (Journal of Enzyme Inhibition and Medicinal Chemistry, 2018)
